The values that follow come from patent publication US4812465A, “Triazole derivatives for use as antimycotic agents” (CL Pharma Aktiengesellschaft, priority 1986, dated 1989).

Values after ≈ are worked out from the molar mass of the structure shown.

The subject of one data set is Absidia ramosa. The data set is described as follows: In vitro determination of minimum inhibitory concentration (MIC), serial dilution. Type of data set: cell-based. Particulars: Lichtheimia ramosa, 336 h, pH 6, Absidia ramosa; pH 6.0, 22° C., 14 days. Here is the method: (§1) The antimycotic activities of the compounds were measured by in vitro determination of the minimum inhibitory concentration (MIC) for yeasts, molds and dermatophytes.
(§2) 6 dermatophytes, 2 yeasts and 4 molds were used for testing with fungi, as follows:
(§3) The minimum inhibitory concentration (MIC) was determined in serial dilution tests in test tubes. The volume of the liquid nutrient medium in each test tube was 4.5 ml.
(§4) The substances were dissolved in DMSO and diluted with sterile distilled water to 10 concentrations (100, 50, 25, 12.5, 6.25, 3.12, 1.56, 0.78, 0.39 and 0.19 μg/ml). 0.5 ml of each of these dilution steps was added to liquid nutrient medium. Thus, a constant concentration of solvent in all the nutrient media was ensured, irrespective of the active compound concentration.
(§5) A comparison solution which contained only the solvent in appropriate concentration was included when carrying out each of the tests.
(§6) The individual strains were maintained on Sabouraud/beerwort agar slants and, before they were used in a test, they underwent a passage on a modified Sabouraud liquid nutrient medium. The strains were then harvested, washed and converted into a suspension of McFaerland 3 in the case of yeasts and molds and of McFaerland 4-5 in the case of dermatophytes.
(§7) The amount of material inoculated (inoculum) was 100 μl/test tube (inoculated densities: yeasts about 10^3 /ml, molds about 10^4 /ml, dermatophytes about 10^4 /ml). The pH of the liquid nutrient medium was 6.0. After inoculation had taken place the fungi were incubated at 22° C. for 14 days.
(§8) The MIC was then determined. The concentration step at which growth was no longer visible on macroscopic inspection was used for the determination of the MIC. The comparison substance used was 1-(2-(2,4-dichlorophenyl)-2-(2,4-dichlorophenylmethoxy)ethyl)-1H-imidazole(compound A).
As a reminder, the MIC is the least concentration at which growth counts as inhibited. In the case of `Fc1ccc(OCCCNC(Cn2ccnc2)c2ccc(Cl)cc2Cl)cc1` (stereo not drawn) [Compound 56], it took 6.25 µg/mL (≈ 15.3 µM) to inhibit growth (MIC).

`CN(CCCOc1ccc(Cl)cc1)C(Cn1ccnc1)c1ccc(Cl)cc1Cl` (stereo not drawn) [Compound 60] showed an MIC of 6.25 µg/mL (≈ 14.2 µM).

`CN(CCCOc1ccc(Br)cc1)C(Cn1cncn1)c1ccc(Cl)cc1Cl` (stereo not drawn) [Compound 62] had an MIC of 50 µg/mL (≈ 103 µM).

Another data set has as its system Candida albicans. Described as above. Particulars: 336 h, pH 6, Candida albicans, pH 6.0, 22° C., 14 days, read-out: MIC C.alb. Type of data set: cell-based. Here is the method:
as §1, §2, §3, §4, §5, §6, §7, §8
With `Fc1ccc(OCCCNC(Cn2ccnc2)c2ccc(Cl)cc2Cl)cc1` (stereo not drawn) [Compound 56], the MIC stood at 12.5 µg/mL (≈ 30.6 µM).

For `CN(CCCOc1ccc(Cl)cc1)C(Cn1ccnc1)c1ccc(Cl)cc1Cl` (stereo not drawn) [Compound 60], the MIC came out at 3.12 µg/mL (≈ 7.11 µM).

With `CN(CCCOc1ccc(Br)cc1)C(Cn1cncn1)c1ccc(Cl)cc1Cl` (stereo not drawn) [Compound 62], the MIC turned out to be 6.25 µg/mL (≈ 12.9 µM).

The next data set has as its system Microsporum gypseum. Described as above. Type of data set: cell-based. The conditions noted are these: Nannizzia gypsea, 336 h, pH 6, Microsporum gypseum; pH 6.0, 22° C., 14 days; read-out: MIC Mi.gyp. Here is the method: as §1, §2, §3, §4, §5, §6, §7, §8
With `Fc1ccc(OCCCNC(Cn2ccnc2)c2ccc(Cl)cc2Cl)cc1` (stereo not drawn) [Compound 56], the MIC came to 3.12 µg/mL (≈ 7.64 µM).

On to `CN(CCCOc1ccc(Cl)cc1)C(Cn1ccnc1)c1ccc(Cl)cc1Cl` (stereo not drawn) [Compound 60], for which the MIC is 3.12 µg/mL (≈ 7.11 µM).

Take `CN(CCCOc1ccc(Br)cc1)C(Cn1cncn1)c1ccc(Cl)cc1Cl` (stereo not drawn) [Compound 62]: the MIC is 3.12 µg/mL (≈ 6.44 µM).

The subject of a further data set is Mucor mucedo plus. Described as above. Type of data set: cell-based. The conditions noted are these: Mucor mucedo, 336 h, pH 6, Mucor mucedo plus; pH 6.0, 22° C., 14 days. The procedure:
as §1, §2, §3, §4, §5, §6, §7, §8
On to `Fc1ccc(OCCCNC(Cn2ccnc2)c2ccc(Cl)cc2Cl)cc1` (stereo not drawn) [Compound 56], for which the MIC amounted to 1.56 µg/mL.

For `CN(CCCOc1ccc(Cl)cc1)C(Cn1ccnc1)c1ccc(Cl)cc1Cl` (stereo not drawn) [Compound 60], the MIC turned out to be 3.12 µg/mL.

As for `CN(CCCOc1ccc(Br)cc1)C(Cn1cncn1)c1ccc(Cl)cc1Cl` (stereo not drawn) [Compound 62], the MIC was found to be 3.12 µg/mL.

For another data set, the system named is Aspergillus fumigatus. Described as above. Type of data set: cell-based. Particulars: 20160 min, pH 6. Here is the method:
as §1, §2, §3, §4, §5, §6, §7, §8
Turning to `Fc1ccc(OCCCNC(Cn2ccnc2)c2ccc(Cl)cc2Cl)cc1` (stereo not drawn) [Compound 56], the “MIC Asp.fu.” value is given as 0,78 μg/ml.

On to `CN(CCCOc1ccc(Cl)cc1)C(Cn1ccnc1)c1ccc(Cl)cc1Cl` (stereo not drawn) [Compound 60], for which the “MIC Asp.fu.” value was 6,25 μg/ml.

Take `CN(CCCOc1ccc(Br)cc1)C(Cn1cncn1)c1ccc(Cl)cc1Cl` (stereo not drawn) [Compound 62]: the “MIC Asp.fu.” value is on record as 1,56 μg/ml.

Another data set relates to Mucor mucedo minus. The data set is described as above. Type of data set: cell-based. Particulars: Mucor mucedo, 336 h, pH 6, Mucor mucedo minus; pH 6.0, 22° C., 14 days. The procedure:
as §1, §2, §3, §4, §5, §6, §7, §8
In turn, `Fc1ccc(OCCCNC(Cn2ccnc2)c2ccc(Cl)cc2Cl)cc1` (stereo not drawn) [Compound 56] gave an MIC of 0.78 µg/mL (≈ 1.91 µM).

`CN(CCCOc1ccc(Cl)cc1)C(Cn1ccnc1)c1ccc(Cl)cc1Cl` (stereo not drawn) [Compound 60] yielded an MIC of 1.56 µg/mL (≈ 3.56 µM).

`CN(CCCOc1ccc(Br)cc1)C(Cn1cncn1)c1ccc(Cl)cc1Cl` (stereo not drawn) [Compound 62] returned an MIC of 3.12 µg/mL (≈ 6.44 µM).

For another data set, the system named is Trichophyton rubrum. The data set is described as above. Particulars: 336 h, pH 6, Trichophyton rubrum, pH 6.0, 22° C., 14 days. Type of data set: cell-based. Here is the method: as §1, §2, §3, §4, §5, §6, §7, §8
The molecule `Fc1ccc(OCCCNC(Cn2ccnc2)c2ccc(Cl)cc2Cl)cc1` (stereo not drawn) [Compound 56] showed an MIC of 1.56 µg/mL (≈ 3.82 µM).

`CN(CCCOc1ccc(Cl)cc1)C(Cn1ccnc1)c1ccc(Cl)cc1Cl` (stereo not drawn) [Compound 60] showed an MIC of 0.78 µg/mL (≈ 1.78 µM).

With `CN(CCCOc1ccc(Br)cc1)C(Cn1cncn1)c1ccc(Cl)cc1Cl` (stereo not drawn) [Compound 62], the MIC turned out to be 3.12 µg/mL (≈ 6.44 µM).

A further data set concerns Epidermophyton floccosum. The data set is described as above. Type of data set: cell-based. Particulars: 336 h, pH 6, Epidermophyton floccosum, pH 6.0, 22° C., 14 days. The procedure:
as §1, §2, §3, §4, §5, §6, §7, §8
The molecule `Fc1ccc(OCCCNC(Cn2ccnc2)c2ccc(Cl)cc2Cl)cc1` (stereo not drawn) [Compound 56] yielded an MIC of 6.25 µg/mL (≈ 15.3 µM).

In the case of `CN(CCCOc1ccc(Cl)cc1)C(Cn1ccnc1)c1ccc(Cl)cc1Cl` (stereo not drawn) [Compound 60], the MIC came to 3.12 µg/mL (≈ 7.11 µM).

As for `CN(CCCOc1ccc(Br)cc1)C(Cn1cncn1)c1ccc(Cl)cc1Cl` (stereo not drawn) [Compound 62], the MIC turned out to be 0.78 µg/mL (≈ 1.61 µM).

The test system of the next data set is Candida tropicalis. The data set is described as above. Type of data set: cell-based. Particulars: 336 h, pH 6, Candida tropicalis, pH 6.0, 22° C., 14 days, read-out: MIC C.trop. The procedure: as §1, §2, §3, §4, §5, §6, §7, §8
As for `Fc1ccc(OCCCNC(Cn2ccnc2)c2ccc(Cl)cc2Cl)cc1` (stereo not drawn) [Compound 56], the MIC is 3.12 µg/mL (≈ 7.64 µM).

With `CN(CCCOc1ccc(Cl)cc1)C(Cn1ccnc1)c1ccc(Cl)cc1Cl` (stereo not drawn) [Compound 60], the MIC stood at 1.56 µg/mL (≈ 3.56 µM).

For `CN(CCCOc1ccc(Br)cc1)C(Cn1cncn1)c1ccc(Cl)cc1Cl` (stereo not drawn) [Compound 62], the MIC was 3.12 µg/mL (≈ 6.44 µM).

A further data set deals with Trichophyton verrucosum. The data set is described as above. Type of data set: cell-based. The conditions noted are these: 336 h, pH 6, Trichophyton verrucosum, pH 6.0, 22° C., 14 days. The procedure:
as §1, §2, §3, §4, §5, §6, §7, §8
Molecule `Fc1ccc(OCCCNC(Cn2ccnc2)c2ccc(Cl)cc2Cl)cc1` (stereo not drawn) [Compound 56] yielded an MIC of 1.56 µg/mL (≈ 3.82 µM).

Turning to `CN(CCCOc1ccc(Cl)cc1)C(Cn1ccnc1)c1ccc(Cl)cc1Cl` (stereo not drawn) [Compound 60], inhibition of growth (MIC) required 1.56 µg/mL (≈ 3.56 µM).

In the case of `CN(CCCOc1ccc(Br)cc1)C(Cn1cncn1)c1ccc(Cl)cc1Cl` (stereo not drawn) [Compound 62], inhibition of growth (MIC) required 1.56 µg/mL (≈ 3.22 µM).

A further data set concerns Trichophyton mentagrophytes. The data set is described as above. Type of data set: cell-based. Particulars: 336 h, pH 6, Trichophyton mentagrophytes, pH 6.0, 22° C., 14 days. The procedure: as §1, §2, §3, §4, §5, §6, §7, §8
Turning to `Fc1ccc(OCCCNC(Cn2ccnc2)c2ccc(Cl)cc2Cl)cc1` (stereo not drawn) [Compound 56], the MIC turned out to be 3.12 µg/mL (≈ 7.64 µM).

The molecule `CN(CCCOc1ccc(Cl)cc1)C(Cn1ccnc1)c1ccc(Cl)cc1Cl` (stereo not drawn) [Compound 60] showed an MIC of 6.25 µg/mL (≈ 14.2 µM).

The molecule `CN(CCCOc1ccc(Br)cc1)C(Cn1cncn1)c1ccc(Cl)cc1Cl` (stereo not drawn) [Compound 62] displayed an MIC of 1.56 µg/mL (≈ 3.22 µM).

The test system of a further data set is Microsporum canis. Described as above. Type of data set: cell-based. Particulars: 336 h, pH 6, Microsporum canis, pH 6.0, 22° C., 14 days. Here is the method: as §1, §2, §3, §4, §5, §6, §7, §8
`Fc1ccc(OCCCNC(Cn2ccnc2)c2ccc(Cl)cc2Cl)cc1` (stereo not drawn) [Compound 56] had an MIC of 12.5 µg/mL (≈ 30.6 µM).

`CN(CCCOc1ccc(Cl)cc1)C(Cn1ccnc1)c1ccc(Cl)cc1Cl` (stereo not drawn) [Compound 60] yielded an MIC of 1.56 µg/mL (≈ 3.56 µM).

Molecule `CN(CCCOc1ccc(Br)cc1)C(Cn1cncn1)c1ccc(Cl)cc1Cl` (stereo not drawn) [Compound 62] registered an MIC of 3.12 µg/mL (≈ 6.44 µM).
